Reference: US20230242538A1, “PanK Modulators and Methods Using Same” (YALE UNIVERSITY, priority 2020, published 2023)
Converted amounts (≈) assume the structure as drawn. Like-named read-outs stand apart in the source and are kept apart here.

What was measured:
[1] = system: WT cells (Saccharomyces cerevisiae); experiment: Liquid growth assay in minimal medium, WT yeast; format: cell-based
Description: (§1) Yeast strains (Saccharomyces cerevisiae) used in this study are JS91.15-23 (MATα his3 leu2 trp1 ura3) and JS91.14-24 (MATa ura3 his3 cab1ts) (Olzhausen, et al., 2009, Curr Genet 55, 163-173). Wild type and mutant strains were propagated either in YPD medium (2% bacto-peptone, 2% D-(+)-glucose and 1% yeast extract) or defined pantothenic acid-free (minimal) medium composed of Yeast Nitrogen Base (MP Biomedicals), supplemented with Complete Supplement Mixture (MP Biomedicals) and all vitamins except pantothenic acid. Where indicated, media were supplemented with appropriate concentrations of pantothenic acid.
(§2) Spotting assay were performed as follows. Pre-cultures of WT and cab1^ts yeast strains were prepared in YPD medium overnight at 30° C. Cells were harvested, washed, and diluted to 10^8 cells in 500 μL sterile water. Subsequent serial dilutions were made and 5 μL of cell suspensions were spotted on YPD agar plates lacking or supplemented with amorolfine 10 ng/mL, amphotericin B 1 μg/mL, fluconazole 10 μg/mL or terbinafine 10 μg/mL to achieve 10^6, 10^5, 10^4, 10^3, 10^2, and 10^1 cells per spot. Plates were incubated at 30° C. or 37° C. and imaged every 24 hours. For liquid assay in 96-well plate format, cells were pre-cultured overnight in liquid YPD medium at 30° C., washed three times in water and diluted to achieve 10^4 cells per well in 150 μL of minimal medium supplemented with 1 μM, 10 μM or 100 μM pantothenic acid and either lacking or supplemented with terbinafine (160 μg/ml). All plates were incubated at 30° C. Optical density measurements were taken with a BioTek SynergyMx microplate reader (OD630) every 8 hours for a total of 96 hours. Relative time to mid-log phase was calculated by first graphing growth curves of the varying concentrations of terbinafine for each concentration of pantothenic acid, and then determining the value at which the untreated curve reached saturation, and dividing it by 2 to represent the mid-log value. Dividing the time to mid-log phase of treated cells by the time to mid-log phase of untreated gave the relative time to mid-log phase.

[2] = system: WT cells (Saccharomyces cerevisiae); experiment: Drug-drug interaction with α-PanAm, checkerboard / isobologram; format: cell-based; details: n=2
Description: Clin. Microbiol. 43:140-143. The isobologram was produced by solving for the sum 50% fractional inhibitory concentration (ΣFIC50) using the equation: The data from the time-point where the 0 μg/mL terbinafine curve reached saturation was used to generate percent inhibition values, representing growth inhibition based on the concentration of terbinafine. This was done by dividing the value of interest by the untreated (0 μg/mL terbinafine) value, multiplying by 100 to get a percentage, and then subtracting that percentage from 100, representing 100% inhibition. The resulting values were used to create an inhibition curve, using the best fit function to generate an MIC50. […] The resulting MIC50 values were plugged into the ΣFIC50 equation, and the ΣFIC50 values were used to generate the curve.

[3] = system: cab1^ts cells (Saccharomyces cerevisiae JS91.14-24); experiment: Spotting assay on YPD agar, cab1ts yeast; format: cell-based; details: 30° C., 48 hours; amorolfine 10 ng/mL, fluconazole 10 μg/mL, terbinafine 10 μg/mL, amphotericin B 1 μg/mL
Description: as §1, §2

[4] = system: cab1^ts cells (Saccharomyces cerevisiae); experiment: Liquid growth assay in minimal medium, cab1ts yeast; format: cell-based; details: for relative time to mid-log phase in the presence vs. absence of the drug: 160 μg/mL terbinafine
Description: as §1, §2

[5] = system: WT cells (Saccharomyces cerevisiae JS91.15-23); experiment: Spotting assay on YPD agar, WT yeast; format: cell-based; details: 30° C., 48 hours; amorolfine 10 ng/mL, fluconazole 10 μg/mL, terbinafine 10 μg/mL, amphotericin B 1 μg/mL
Description: as §1, §2

yeast = details: cited from earlier work
[6] = 100 μM PA, single agent: squalene 100 μg/mL or terbinafine 80 μg/mL
[7] = 1 μg/mL amphotericin B, 1 μM PA

SMILES	mid-log phase reached at (time) [1, 6]	drug-drug interaction pattern with α-PanAm (isobologram) [2]	growth of cab1^ts cells on YPD agar in the presence of the drug [3]	growth of WT cells on YPD agar in the presence of the drug [5]	other results
CN(C/C=C/C#CC(C)(C)C)Cc1cccc2ccccc12 [terbinafine]	47 hours	antagonism	not affected	greatly reduced	mid-log phase reached at (time) ([1]; 100 μM PA, terbinafine 80 μg/mL in the presence of 100 μg/mL squalene): 61 hours; relative time to mid-log phase in the presence vs. absence of the drug ([1]; 160 μg/mL terbinafine, 1 μM PA): 1.8; relative time to mid-log phase in the presence vs. absence of the drug ([1]; 160 μg/mL terbinafine, 10 μM PA): 2.1; relative time to mid-log phase in the presence vs. absence of the drug ([1]; 160 μg/mL terbinafine, 100 μM PA): 2.3; relative time to mid-log phase in the presence vs. absence of the drug ([4]; 1 μM PA): 1.1; relative time to mid-log phase in the presence vs. absence of the drug ([4]; 10 μM PA): 1.4; relative time to mid-log phase in the presence vs. absence of the drug ([4]; 100 μM PA): 1.6
C[C@@H]1[C@H](O)[C@@H](C)/C=C/C=C/C=C/C=C/C=C/C=C/C=C/[C@H](O[C@@H]2O[C@H](C)[C@@H](O)[C@H](N)[C@@H]2O)C[C@@H]2O[C@](O)(C[C@@H](O)C[C@@H](O)[C@H](O)CC[C@@H](O)C[C@@H](O)CC(=O)O[C@H]1C)C[C@H](O)[C@H]2C(=O)O [amphotericin B]	–	synergism	reduced dramatically	only slightly inhibited	relative time to mid-log phase in the presence vs. absence of the drug [1, 7]: 2.1; growth of WT cells in liquid medium ([1]; 1 μg/mL amphotericin B, 100 μM PA): not significantly affected; growth of cab1^ts cells in liquid medium [4, 7]: did not grow whatsoever
CC(C)=CCC/C(C)=C/CC/C(C)=C/CC/C=C(\C)CC/C=C(\C)CCC=C(C)C [squalene]	34 hours	–	–	–	–
CCC(C)(C)c1ccc(CC(C)CN2C[C@@H](C)O[C@@H](C)C2)cc1 (stereo partly drawn) [amorolfine]	–	–	not affected	completely blocked	–
OC(Cn1cncn1)(Cn1cncn1)c1ccc(F)cc1F [fluconazole]	–	–	not affected	greatly reduced	–
CC(CNC(=O)[C@H](O)C(C)(C)CO)C(=O)NCCc1ccccc1 (stereo partly drawn) [α-PanAm]	–	–	–	–	MIC50 (yeast; medium supplemented with 1 μM pantothenic acid): ~7.6 µg/mL (≈ 22.6 µM); MIC50 (yeast; medium with 100 nM pantothenic acid): ~1.9 µg/mL (≈ 5.65 µM)
